Reference: patent publication US12162888B2, “Carboxamides as ubiquitin-specific protease inhibitors” (Valo Early Discovery, Inc., priority 2018, dated 2024)
pIC50: −log10 of the molar value.

target: T1, USP28 (His-tagged USP28-FL-mammalian) (Homo sapiens, UniProt Q96RU2); assay: Ubiquitin-Rhodamine 110 Assay for USP28 Activity, Example A-1(a); type: biochemical; conditions: Ubiquitin-Rhodamine 110 biochemical assay, read-out: USP28 A-1(a) IC50 range
T1 construct: Expression of USP28 (1-1077)-TEV-6*His (pTT5 vector) was carried out in Expi293f cells; made in house; host or cells: Expi293F cells (pTT5 vector)
T1 sequence (Q96RU2 1-1077): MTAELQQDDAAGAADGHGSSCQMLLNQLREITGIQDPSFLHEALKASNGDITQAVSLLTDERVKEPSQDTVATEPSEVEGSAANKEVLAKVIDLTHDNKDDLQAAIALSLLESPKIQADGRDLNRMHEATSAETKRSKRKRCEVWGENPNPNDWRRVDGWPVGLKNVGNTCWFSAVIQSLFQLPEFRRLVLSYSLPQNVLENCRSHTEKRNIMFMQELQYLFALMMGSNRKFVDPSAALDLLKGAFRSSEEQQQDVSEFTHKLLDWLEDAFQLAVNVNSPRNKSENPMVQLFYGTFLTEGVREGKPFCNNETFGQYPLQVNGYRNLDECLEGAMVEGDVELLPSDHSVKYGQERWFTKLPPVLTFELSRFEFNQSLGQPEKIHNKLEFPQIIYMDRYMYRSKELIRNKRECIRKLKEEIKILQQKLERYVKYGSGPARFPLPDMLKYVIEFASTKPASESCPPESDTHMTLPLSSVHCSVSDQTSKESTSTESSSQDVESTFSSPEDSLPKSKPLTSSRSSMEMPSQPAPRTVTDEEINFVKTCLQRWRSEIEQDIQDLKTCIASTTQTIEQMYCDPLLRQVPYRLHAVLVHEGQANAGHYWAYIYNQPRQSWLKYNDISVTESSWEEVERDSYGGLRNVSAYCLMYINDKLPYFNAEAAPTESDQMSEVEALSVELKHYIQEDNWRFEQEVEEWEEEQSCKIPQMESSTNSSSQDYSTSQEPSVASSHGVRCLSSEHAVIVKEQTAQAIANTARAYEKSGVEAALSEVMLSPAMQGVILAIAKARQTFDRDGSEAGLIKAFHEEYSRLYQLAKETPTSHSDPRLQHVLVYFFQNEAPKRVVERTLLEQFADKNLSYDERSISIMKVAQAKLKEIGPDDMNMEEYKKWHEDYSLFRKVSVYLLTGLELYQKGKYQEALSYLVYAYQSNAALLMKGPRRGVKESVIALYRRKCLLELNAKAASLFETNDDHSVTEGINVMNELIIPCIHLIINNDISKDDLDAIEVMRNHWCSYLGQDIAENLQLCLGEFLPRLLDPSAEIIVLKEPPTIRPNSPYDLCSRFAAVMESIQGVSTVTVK
In short: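 Full-length His-tagged human USP28 (1-1077), expressed in Expi293F cells, was used at […] with 25 nM Ub-Rh110 (<<Km) in 20 mM Tris pH 8.0, 3 mM BME, 0.03% BGG and 0.01% Triton X-100. Compounds (25 μM-1.3 nM, 10-point) were preincubated with enzyme for 30 min, and the reaction ran 45 min at room temperature before a citric acid stop. Fluorescence was read at 485/535 nm, and IC50 came from 4-parameter fits of percent inhibition.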

| Compound | pIC50 |
| --- | --- |
| CCO[C@H]1CN(c2ccc3c(n2)CC[C@H](NC(=O)c2sc4nc(C)cnc4c2N)C3)C[C@@H]1N [Example 520, 7-amino-N-[(6S)-2-[(3S,4S)-3-amino-4-ethoxypyrrolidin-1-yl]-5,6,7,8-tetrahydroquinolin-6-yl]-3-methylthieno[2,3-b]pyrazine-6-carboxamide] | 5.70 to 6.70 |
| COC[C@@H](C)O[C@@H]1CN(c2ccc3c(n2)CC[C@H](NC(=O)c2sc4nc(C)ccc4c2N)C3)C[C@H]1N [Example 483, 3-amino-N-[(6S)-2-[(3R,4R)-3-amino-4-{[(2R)-1-methoxypropan-2-yl]oxy}pyrrolidin-1-yl]-5,6,7,8-tetrahydroquinolin-6-yl]-6-methylthieno[2,3-b]pyridine-2-carboxamide] | 6.70 to 7.30 |
| COC[C@@H]1CN(c2ccc3c(n2)CC[C@H](NC(=O)c2sc4cnccc4c2N)C3)C[C@@H]1N [Example 500, 3-amino-N-[(6S)-2-[(3R,4R)-3-amino-4-(methoxymethyl)pyrrolidin-1-yl]-5,6,7,8-tetrahydroquinolin-6-yl]thieno[2,3-c]pyridine-2-carboxamide] | < 5.70 |
| 3-amino-N-[(6S)-2-[(3R,4S)-3-(methoxymethyl)-4-[(^2H3)methylamino]pyrrolidin-1-yl]-5,6,7,8-tetrahydroquinolin-6-yl]-6-methylthieno[2,3-b]pyridine-2-carboxamide [Example 487] | 5.70 to 6.70 |
| CN[C@H]1CN(c2ccc3c(n2)CC[C@H](NC(=O)c2sc4nc(C)cnc4c2N)C3)C[C@@H]1OC [Example 490, 7-amino-N-[(6S)-2-[(3S,4S)-3-methoxy-4-(methylamino)pyrrolidin-1-yl]-5,6,7,8-tetrahydroquinolin-6-yl]-3-methylthieno[2,3-b]pyrazine-6-carboxamide] | 6.70 to 7.30 |
| CN[C@H]1CN(c2ccc3c(n2)CC[C@H](NC(=O)c2sc4nc(C)ccc4c2N)C3)C[C@]12CCCCO2 [Example 502, 3-amino-6-methyl-N-[(6S)-2-[(4S,5R)-4-(methylamino)-6-oxa-2-azaspiro[4.5]decan-2-yl]-5,6,7,8-tetrahydroquinolin-6-yl]thieno[2,3-b]pyridine-2-carboxamide] | 6.70 to 7.30 |
| Cc1ccc2c(N)c(C(=O)N[C@H]3CCc4nc(N5CC[C@]6(CCCN6)C5)ccc4C3)sc2n1 [Example 505, 3-amino-N-[(6S)-2-[(5R)-1,7-diazaspiro[4.4]nonan-7-yl]-5,6,7,8-tetrahydroquinolin-6-yl]-6-methylthieno[2,3-b]pyridine-2-carboxamide] | 6.70 to 7.30 |

same assay, conditions: biochemical IC50 range, Ubiquitin-Rhodamine 110 assay, read-out: USP28 A-1(a)

| Compound | pIC50 |
| --- | --- |
| Cc1ccc2c(N)c(C(=O)N[C@H]3COc4cc(N5C[C@@H](N)C6(C5)OCCO6)ccc4C3)sc2n1 [Example 682, 3-amino-N-[(3R)-7-[(9R)-9-amino-1,4-dioxa-7-azaspiro[4.4]nonan-7-yl]-3,4-dihydro-2H-1-benzopyran-3-yl]-6-methylthieno[2,3-b]pyridine-2-carboxamide] | 6.70 to 7.30 |
| Cc1ccc2c(N)c(C(=O)N[C@H]3COc4nc(N5C[C@H](CF)[C@H](N)C5)ccc4C3)sc2n1 [Example 540, 3-amino-N-[(3R)-7-[(3S,4S)-3-amino-4-(fluoromethyl)pyrrolidin-1-yl]-2H,3H,4H-pyrano[2,3-b]pyridin-3-yl]-6-methylthieno[2,3-b]pyridine-2-carboxamide] | 6.70 to 7.30 |
| CO[C@@]12CCN[C@@H]1CN(c1ccc3c(c1)OC[C@H](NC(=O)c1sc4nc(C)ccc4c1N)C3)C2 [Example 667, N-[(3R)-7-[(3aR,6aR)-3a-methoxyoctahydropyrrolo[2,3-c]pyrrol-5-yl]-3,4-dihydro-2H-1-benzopyran-3-yl]-3-amino-6-methylthieno[2,3-b]pyridine-2-carboxamide] | 7.30 to 9.00 |
| Cc1ccc2c(N)c(C(=O)N[C@H]3COc4nc(N5C[C@@H](CF)[C@@H](N)C5)ccc4C3)sc2n1 [Example 539, 3-amino-N-[(3R)-7-[(3R,4R)-3-amino-4-(fluoromethyl)pyrrolidin-1-yl]-2H,3H,4H-pyrano[2,3-b]pyridin-3-yl]-6-methylthieno[2,3-b]pyridine-2-carboxamide] | 6.70 to 7.30 |
| CNc1ncc(C(=O)N[C@H]2COc3cc(N4CCNCC4)ccc3C2)c2[nH]ccc12 [Example 674, 4-(methylamino)-N-[(3R)-7-(piperazin-1-yl)-3,4-dihydro-2H-1-benzopyran-3-yl]-1Hpyrrolo[3,2-c]pyridine-7-carboxamide] | 5.70 to 6.70 |
| Cc1ccc2c(N)c(C(=O)NC3COc4cc(N5CC(N)C(COC(F)(F)F)C5)ccc4C3)sc2n1 [Example 672, 3-amino-N-[(3R)-7-[(3R,4R)-3-amino-4-[(trifluoromethoxy)methyl]pyrrolidin-1-yl]-3,4-dihydro-2H-1-benzopyran-3-yl]-6-methylthicno[2,3-b]pyridine-2-carboxamide] | 6.70 to 7.30 |
| CO[C@H]1CN(c2cc(F)c3c(c2)OC[C@H](NC(=O)c2sc4nc(C)ncc4c2N)C3)C[C@@H]1N [Example 693, 5-amino-N-[(3R)-7-[(3S,4S)-3-amino-4-methoxypyrrolidin-1-yl]-5-fluoro-3,4-dihydro-2H-1-benzopyran-3-yl]-2-methylthieno[2,3-d]pyrimidine-6-carboxamide] | 5.70 to 6.70 |
| Cc1ccc2c(N)c(C(=O)N[C@H]3COc4cc(OC[C@@H]5CNC[C@H]5C(F)(F)F)ccc4C3)sc2n1 [Example 687, 3-amino-6-methyl-N-[(3R)-7-{[(3S,4S)-4-(trifluoromethyl)pyrrolidin-3-yl]methoxy}-3,4-dihydro-2H-1-benzopyran-3-yl]thieno[2,3-b]pyridine-2-carboxamide] | 7.30 to 9.00 |
| Cc1ccc2c(N)c(C(=O)N[C@H]3COc4cc(N5C[C@H](N)[C@@]6(CCCCO6)C5)ccc4C3)sc2n1 [Example 611-1, 3-amino-N-[(3R)-7-[(4S,5R)-4-amino-6-oxa-2-azaspiro[4.5]decan-2-yl]-3,4-dihydro-2H-1-benzopyran-3-yl]-6-methylthieno[2,3-b]pyridine-2-carboxamide] | 7.30 to 9.00 |
| Cc1ccc2c(N)c(C(=O)NC3COc4cc(N5CC6NCC(F)(F)C6C5)ccc4C3)sc2n1 [Example 654, N-[(3R)-7-[(3aS,6aS)-3,3-difluorooctahydropyrrolo[3,4-b]pyrrol-5-yll-3,4-dihydro-2H-1-benzopyran-3-yl]-3-amino-6-methylthieno[2,3-b]pyridine-2-carboxamide] | 7.30 to 9.00 |
| CCn1cc(Cl)c2cc(C(=O)N[C@H]3COc4cc(N5C[C@H](OC)[C@@H](N)C5)ccc4C3)nnc21 [Example 696, N-[(3R)-7-[(3S,4S)-3-amino-4-methoxypyrrolidin-1-yl]-3,4-dihydro-2H-1-benzopyran-3-yl]-5-chloro-7-ethyl-7Hpyrrolo[2,3-c]pyridazine-3-carboxamide] | 5.70 to 6.70 |
| Cc1ccc2c(N)c(C(=O)N[C@H]3COc4cc(N5CC[C@@]6(CCCN6)C5)cc(F)c4C3)sc2n1 [Example 684, 3-amino-N-[(3R)-7-[(5S)-1,7-diazaspiro[4.4]nonan-7-yl]-5-fluoro-3,4-dihydro-2H-1-benzopyran-3-yl]-6-methylthieno [2,3-b]pyridine-2-carboxamide] | 7.30 to 9.00 |
| Cc1ccc2c(N)c(C(=O)N[C@H]3COc4cc(OC[C@H]5CNC[C@@H]5C(F)(F)F)ccc4C3)sc2n1 [Example 688, 3-amino-6-methyl-N-[(3R)-7-{[(3R,4R)-4-(trifluoromethyl)pyrrolidin-3-yl]methoxy}-3,4-dihydro-2H-1-benzopyran-3-yl]thieno[2,3-b]pyridine-2-carboxamide] | 7.30 to 9.00 |
| Cc1ccc2c(N)c(C(=O)N[C@H]3COc4cc(N5CC6[C@H](C5)NCC6(F)F)ccc4C3)sc2n1 (stereo partly drawn) [Example 655, N-[(3R)-7-[(6aR)-3,3-difluorooctahydropyrrolo[3,4-b]pyrrol-5-yl]-3,4-dihydro-2H-1-benzopyran-3-yl]-3-amino-6-methylthieno[2,3-b]pyridine-2-carboxamide] | 7.30 to 9.00 |
| Cc1ccc2c(N)c(C(=O)N[C@H]3COc4nc(N5C[C@@H](N)C6(C5)OCCO6)ccc4C3)sc2n1 [Example 544, 3-amino-N-[(3R)-7-[(9R)-9-amino-1,4-dioxa-7-azaspiro[4.4]nonan-7-yl]-2H,3H,4H-pyrano[2,3-b]pyridin-3-yl]-6-methylthieno[2,3-b]pyridine-2-carboxamide] | 5.70 to 6.70 |
